Test results as given in PubChem BioAssay (NCI).
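Compound exposure: 48 hours, 5 concentrations, 96-well plates. Abbreviation: GI50, concentration required for 50% inhibition of growth. TGI marks complete inhibition of growth.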

Legend:
Assay in all cases: NCI anticancer screen, dose series, 48 h
[1] = tested on: 786-0 renal
[2] = tested on: A498 renal
[3] = tested on: HOP-92 NSCLC
[4] = tested on: SNB-75 CNS
[5] = tested on: SW-620 colon
[6] = tested on: ACHN renal
[7] = tested on: HCT-116 colon
[8] = tested on: OVCAR-4 ovarian
[9] = tested on: HL-60(TB) leukemia
[10] = tested on: NCI/ADR-RES ovarian

| SMILES | TGI [1] [µM] | TGI [2] [µM] | TGI [3] [µM] | TGI [4] [µM] | TGI [5] [µM] | TGI [6] [µM] | TGI [7] [µM] | TGI [8] [µM] | TGI [9] [µM] | GI50 [1] [µM] | GI50 [2] [µM] | GI50 [6] [µM] | GI50 [7] [µM] | GI50 [3] [µM] | GI50 [10] [µM] | TGI [10] [µM] | GI50 [8] [µM] | GI50 [5] [µM] |
| --- | --- | --- | --- | --- | --- | --- | --- | --- | --- | --- | --- | --- | --- | --- | --- | --- | --- | --- |
| Cn1cc(C2(C)CC(C)(C)c3c2n(C)c2ccccc32)c2ccccc21 (centres undefined) | > 100 | > 100 | > 100 | > 100 | > 100 |  |  |  |  |  |  |  |  |  |  |  |  |  |
| COC(=O)C(Cc1nc2ccccc2[nH]c1=O)C(NO)C(=O)Nc1c(Cl)cc([N+](=O)[O-])cc1Cl (centres undefined) | > 100 | 46.5 | 25.7 |  |  | > 100 | 47.9 | > 100 |  |  |  |  |  |  |  |  |  |  |
| COC(=O)C(CC(=O)Nc1ccc(C)cc1)C(=O)C(=O)Nc1c(C(C)C)cccc1C(C)C (centres undefined) | > 100 | > 100 | > 100 | > 100 | > 100 | > 100 | > 100 | > 100 | > 100 |  |  |  |  |  |  |  |  |  |
| O=C(/C=C/c1ccc(Cl)c(Cl)c1)c1ccc2ccccc2c1 | > 100 | > 100 | > 100 | > 100 | > 100 | > 100 | > 100 | > 100 | > 100 |  |  |  |  |  |  |  |  |  |
| CCOC(=O)C(=O)Nc1ccccc1CC | > 100 |  | > 100 |  | > 100 | > 100 | > 100 | > 100 | > 100 |  |  |  |  |  |  |  |  |  |
| Cc1[nH]c(=O)nc2[nH][nH]c(=O)c12 | > 100 |  | > 100 |  | > 100 | > 100 | > 100 | > 100 | > 100 |  |  |  |  |  |  |  |  |  |
| Cc1cc(NS(=O)(=O)c2ccc(Nc3c4ccccc4nc4c(C(=O)N5CCN(CCO)CC5)cccc34)cc2)no1 | > 100 | > 100 | > 100 | > 100 | > 100 | > 100 | > 100 | > 100 | > 100 |  |  |  |  |  |  |  |  |  |
| O=C(N/N=C/c1cc(Br)ccc1O)N/N=C/c1cc(Br)ccc1O | > 100 | > 100 | 6.05 |  | > 100 | > 100 |  | > 100 | > 100 |  |  |  |  |  |  |  |  |  |
| CC(C)c1c(O)c(O)c2c(c1O)C(=O)C(O)=C1C(C)(C)CCC[C@@]12C | 13.8 | 11.9 | 5.63 | 8.12 | 11.8 | 11.3 | 11.2 | 16.7 | 4.78 |  |  |  |  |  |  |  |  |  |
| CCCN(CCC)C(=O)c1c([N+](=O)[O-])cc(C(F)(F)F)cc1[N+](=O)[O-] | > 100 | > 100 | 93.3 | > 100 | 84.3 | > 100 | 87.4 | 32.9 | 56.3 |  |  |  |  |  |  |  |  |  |
| COc1cc2[nH]c3c(c2cc1OC)CCN[C@]31CC[C@]2(CC3c4c(cc(OC)c(O)c42)CCN3C)C[C@H]1OC (some centres undefined) | 32.6 | 70.9 | 75.7 | 45.5 | 53.3 | 62.4 | 31.6 | 43.3 | 24.6 |  |  |  |  |  |  |  |  |  |
| O=C1c2ccccc2C(=O)C1(O)c1c[nH]c2ccccc12 | > 100 |  | > 100 | > 100 | > 100 |  | > 100 | > 100 | > 100 |  |  |  |  |  |  |  |  |  |
| c1ccc(C2N3CCCCC3[C@@H]3c4[nH]c5ccccc5c4CCN23)nc1 (some centres undefined) | > 100 | > 100 | > 100 | > 100 | > 100 | > 100 | > 100 | > 100 | > 100 |  |  |  |  |  |  |  |  |  |
| O=C(Nc1cc(Cl)c(Cl)cc1Cl)C(=O)C1C(=O)NC(=S)NC1=O | > 100 | > 100 | > 100 | > 100 | > 100 | > 100 | > 100 | > 100 | > 100 |  |  |  |  |  |  |  |  |  |
| COc1ccc(CN2CC(C)(C)C2=O)c(OC)c1 | > 100 | > 100 | > 100 | > 100 | > 100 | > 100 | > 100 | > 100 | > 100 |  |  |  |  |  |  |  |  |  |
| CCOC(=O)/C(C)=C(/O)C(=O)OCC | > 100 | > 100 | > 100 | > 100 | > 100 | > 100 | > 100 | > 100 | > 100 |  |  |  |  |  |  |  |  |  |
| O=C(O)CNS(=O)(=O)c1ccc(NC(=O)c2ccc([N+](=O)[O-])cc2)cc1 | > 100 | > 100 | > 100 | > 100 | > 100 | > 100 |  | > 100 | > 100 |  |  |  |  |  |  |  |  |  |
| Nc1ccccc1/C(O)=C1/CCOC1=O | > 100 | > 100 | > 100 | > 100 | > 100 | > 100 | > 100 | > 100 | > 100 |  |  |  |  |  |  |  |  |  |

| SMILES | TGI [1] [µM] | TGI [2] [µM] | TGI [3] [µM] | TGI [4] [µM] | TGI [5] [µM] | TGI [6] [µM] | TGI [7] [µM] | TGI [8] [µM] | TGI [9] [µM] | GI50 [1] [µM] | GI50 [2] [µM] | GI50 [6] [µM] | GI50 [7] [µM] | GI50 [3] [µM] | GI50 [10] [µM] | TGI [10] [µM] | GI50 [8] [µM] | GI50 [5] [µM] |
| --- | --- | --- | --- | --- | --- | --- | --- | --- | --- | --- | --- | --- | --- | --- | --- | --- | --- | --- |
| CCCCNC1CCCCC[C@H]1O (some centres undefined) | > 100 |  | > 100 | > 100 | > 100 | > 100 | > 100 | > 100 | > 100 |  |  |  |  |  |  |  |  |  |
| Cc1nnc(NS(=O)(=O)c2ccc(N=Nc3cc(N=Nc4ccc(S(=O)(=O)Nc5nnc(C)s5)cc4)c4c(NC(=O)C(Cl)Cl)cccc4c3OC(=O)C(Cl)Cl)cc2)s1 (tested in a mixture with another compound) | > 100 | > 100 | > 100 | 82 | > 100 |  | 41.7 | 39 | 42.4 |  |  |  |  |  |  |  |  |  |
| [N-]=[N+]=C1C(=O)NN=C1c1ccccc1 | > 100 |  | > 100 | > 100 | > 100 | > 100 | > 100 | > 100 | > 100 |  |  |  |  |  |  |  |  |  |
| COc1ccc2c3c([nH]c2c1[N+](=O)[O-])C(C)N(C)CC3 (centres undefined) | > 100 | > 100 | > 100 | > 100 | > 100 | > 100 | > 100 | > 100 | > 100 |  |  |  |  |  |  |  |  |  |
| CCOC(=O)N[C@@H]1C(CC(=O)OC)O[C@H]2OC(C)(C)O[C@H]21 (some centres undefined) | > 100 | > 100 | > 100 | > 100 | > 100 | > 100 |  | > 100 | > 100 |  |  |  |  |  |  |  |  |  |
| COc1cc(/C=C/c2ccc(OC)c(O)c2)cc(OC)c1 | 32.7 | > 100 | 29.4 |  | 13.7 | 41.2 | 12.3 | 67.9 | 4.43 |  |  |  |  |  |  |  |  |  |
| O=C(Nc1ccccc1-c1nc2ccccc2[nH]c1=O)c1ccccc1 | 31 | 51.3 | 51.4 | 30.8 | 73.7 | 45 | 40.7 | 50.6 |  |  |  |  |  |  |  |  |  |  |
| C=C(C)CCN[Si](c1ccccc1)(c1ccccc1)C(C)(C)C | 33.5 | > 100 | 34.2 | 82.2 | > 100 | > 100 | 27.7 | 44.4 | 44.5 |  |  |  |  |  |  |  |  |  |
| CC1=[N+]([O-])c2ccccc2C(=O)C1=O | > 100 | > 100 | > 100 | > 100 | > 100 | > 100 | > 100 | > 100 | > 100 |  |  |  |  |  |  |  |  |  |
| Cc1ccc(N=C/C=C(\Nc2ccc(C)cc2)c2ccc(Cl)cc2)cc1 | 28.7 | 34.1 | 33.1 |  | 52 | > 100 | 46.8 | > 100 |  | 11.1 | 16.8 | 14.5 | 5.54 | 14 | 5.1 | 22.1 | 47.4 | 6.44 |
| CN(Cc1ccccc1)C(=O)c1ccccc1C(=O)O | > 100 |  | > 100 | > 100 | > 100 | > 100 | > 100 | > 100 | > 100 |  |  |  |  |  |  |  |  |  |
| CNC(=S)/N=C(\N)N(C)C | > 100 | > 100 | > 100 | > 100 | > 100 | > 100 | > 100 | > 10 | > 100 |  |  |  |  |  |  |  |  |  |
| CC(=O)C1Cn2c(nc3ccccc32)C[Se]1 (centres undefined) | 9.21 | 32.7 | 4.72 | 8.02 | 17.3 | 11.4 | 7.7 | 11.8 | 5.71 |  |  |  |  |  |  |  |  |  |
| CN(C)CCC1(C2=CCCC2)CC/C(=C\c2ccc(Cl)cc2)C1=O (centres undefined) | 15.2 | 19.1 | 15.4 | 20.4 | 24.2 | 23.8 | 22.3 | 21.5 | 3.91 |  |  |  |  |  |  |  |  |  |
| CC1=CC(C)(C)N=C2SC(c3ccc(N)cc3)=NN12 | > 100 | > 100 | > 100 | > 100 | > 61.2 | > 100 | > 100 | > 100 | > 53 |  |  |  |  |  |  |  |  |  |
| c1cnn(CN(Cn2cccn2)Cn2cccn2)c1 | > 100 | > 100 | > 100 | > 100 | > 100 | > 100 | > 100 | > 100 | > 100 |  |  |  |  |  |  |  |  |  |
| O=C1C2C3C=C4c5ccccc5N(c5ccccc5)C4(C2C(=O)N1c1ccc([N+](=O)[O-])cc1)[C@H]1C(=O)N(c2ccc([N+](=O)[O-])cc2)C(=O)[C@@H]31 (some centres undefined) | > 100 | > 100 | > 100 | > 100 | > 100 | > 100 | > 100 | > 100 | > 100 |  |  |  |  |  |  |  |  |  |
